This passage reports IC50 results from patent US20240279207A1, “SUBSTITUTED ACYL SULFONAMIDES FOR TREATING CANCER” (The Broad Institute, Inc., priority 2020, published 2024).

Read-outs that look alike come from different tables or passages of the source.

In test [1] the target is T1, Recombinant human His-tagged Kat6a protein (amino acids 194-810) (Homo sapiens, UniProt Q92794).
T1 construct: Kat6a protein (amino acids 194-810); His
Nature of the test: Kat6a activity assay (TR-FRET, acetylation of Histone-H4-derived peptide). It is filed as biochemical. As to conditions: 60 mins at 22° C., 220 nM H4 peptide, 600 nM Acetyl Coenzyme A, read-out: KAT6A - DPF/HAT domain IC50 [mol/l] (arithmetic mean). Here is the method:
Kat6a inhibitory activities of the compounds described in the present invention were quantified using a Fluorescence Resonance Energy Transfer (TR-FRET) assay which measures acetylation of a synthetic, biotinylated Histone-H4-derived peptide by the enzyme.
In this case 50 nl DMSO were used instead of compounds. […] IC50 values were determined by regression analysis based on a 4 parameter equation (minimum, maximum, ICM, Hill; Y=Max+(Min−Max)/(1+(X/ICso) Hill) using the Screener Software (Genedata).

For test [2], the system named is ESR1 transcription in MVLN cells. Nature of the test: MVLN reporter assay: repression of ESR1 transcription (luciferase signal). It is filed as cell-based. As to conditions: Homo sapiens, luciferase signal after 24 h, read-out: MVLN reporter assay, IC50 [M] (arithmetic mean). From the text: KAT6A controls transcription of the ESR1 gene in breast cancer cells. Compound treatment that interferes with this mechanism was quantified using MVLN cells. These cells constitutively express the ER and are stably transfected with the luciferase (LUC) reporter gene and the corresponding hormone responsive element derived from the 5′-flanking region of the Xenopus Vitellogenin A2 gene (Pons et al., 1990, Demirpense et al., 1993, Joyeux et al., 1993). The repressive effect on ERα transcription activity of a test chemical is directly related to the luciferase measured in the lysate of treated MVLN cells. […] Each sample was prepared as duplicate and rim wells were excluded. For luciferase signal determination 100 μl of a 1:1 mixture of Steadylite plus (Perkin Elmer; 6016759) and assay medium was added after 24 h for 15 minutes and measured in Victor X3 (Perkin Elmer). To exclude any effects caused by cell loss during the treatment, cell density was determined using Alamar Blue (Invitrogen; DAL1100). Prior to the luciferase measurement 10 μl Alamar Blue were added to each well and the plates were incubated for 2 h in the incubator. Then fluorescence was measured with Victor X3 (Perkin Elmer) at 530 nm/590 nm.

T1 sequence (Q92794 194-810): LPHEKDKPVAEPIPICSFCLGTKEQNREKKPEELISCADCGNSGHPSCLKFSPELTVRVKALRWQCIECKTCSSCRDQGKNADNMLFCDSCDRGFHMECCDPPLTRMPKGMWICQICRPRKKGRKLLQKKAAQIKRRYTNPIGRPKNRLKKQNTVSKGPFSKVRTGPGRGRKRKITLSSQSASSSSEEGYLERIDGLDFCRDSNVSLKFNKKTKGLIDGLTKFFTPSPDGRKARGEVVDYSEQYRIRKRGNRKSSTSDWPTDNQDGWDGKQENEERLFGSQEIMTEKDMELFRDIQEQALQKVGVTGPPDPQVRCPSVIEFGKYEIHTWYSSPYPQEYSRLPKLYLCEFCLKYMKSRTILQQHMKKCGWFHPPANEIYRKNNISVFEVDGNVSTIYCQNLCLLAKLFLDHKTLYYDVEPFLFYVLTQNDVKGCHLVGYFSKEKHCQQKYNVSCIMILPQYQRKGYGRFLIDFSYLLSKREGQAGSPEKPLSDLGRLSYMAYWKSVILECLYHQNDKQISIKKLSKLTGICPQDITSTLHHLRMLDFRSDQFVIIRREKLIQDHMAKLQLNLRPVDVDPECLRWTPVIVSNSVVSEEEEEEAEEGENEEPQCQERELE

Turning to `COC(=O)Cc1ccc2c(S(=O)(=O)NC(=O)c3cc4c(F)cc(N5CCC5)cc4o3)cccc2c1` [Example 57, Methyl (5-{[6-(azetidin-1-yl)-4-fluoro-1-benzofuran-2-carbonyl]sulfamoyl}naphthalen-2-yl)acetate], the IC50 is 0.12 µM in test [1] and 2.5e-06 M in test [2] (MVLN, 24 h).

On to `CCOc1ccccc1S(=O)(=O)NC(=O)c1cc2c(F)cc(N3CCC3CNC(=O)OC)cc2o1` (racemic) [Example 105, Methyl {[1-{2-[(2-ethoxybenzene-1-sulfonyl)carbamoyl]-4-fluoro-1-benzofuran-6-yl}azetidin-2-yl]methyl}carbamate (rac)], for which the IC50 in test [1] was 1.12 µM; in test [2] (MVLN, 24 h), over 2e-05 M.

Turning to `COC(=O)/C=C/c1ccccc1S(=O)(=O)NC(=O)c1cc2c(F)cc(N3CCC3)cc2o1` [Example 74, Methyl (2E)-3-(2-{[6-(azetidin-1-yl)-4-fluoro-1-benzofuran-2-carbonyl]sulfamoyl}phenyl)prop-2-enoate], the IC50 in test [1] was 0.0898 µM; in test [2] (MVLN, 24 h), 2.56e-06 M.

`CCOc1ccc(Oc2ccccc2)cc1S(=O)(=O)NC(=O)c1cc2c(F)cc(N3CCC3)cc2o1` [Example 211, 6-(Azetidin-1-yl)-N-(2-ethoxy-5-phenoxy-phenyl)sulfonyl-4-fluoro-benzofuran-2-carboxamide]: the IC50 in test [1] was 0.00758 µM; in test [2] (MVLN, 24 h), 2.44e-07 M.

As to `O=C(NS(=O)(=O)c1ccccc1I)c1cc2c(F)cc(N3CCC3)cc2o1` [Example 22, 6-(Azetidin-1-yl)-4-fluoro-N-(2-iodobenzene-1-sulfonyl)-1-benzofuran-2-carboxamide], the IC50 in test [1] came out at 0.034 µM; in test [2] (MVLN, 24 h), 3.19e-07 M.

In the case of `O=C(NS(=O)(=O)c1cnn2c1OCCC2)c1cc2c(F)cc(N3CCC3)cc2o1` [Example 184, 6-(Azetidin-1-yl)-N-(6,7-dihydro-5H-pyrazolo[5,1-b][1,3]oxazine-3-sulfonyl)-4-fluoro-1-benzofuran-2-carboxamide], the IC50 in test [1] turned out to be 0.294 µM; in test [2] (MVLN, 24 h), 5.21e-06 M.

Consider `COc1ccc(-c2c(C)noc2C)cc1S(=O)(=O)NC(=O)c1cc2c(F)cc(N3CCC3)cc2o1` [Example 194, 6-(Azetidin-1-yl)-N-[5-(3,5-dimethyl-1,2-oxazol-4-yl)-2-methoxybenzene-1-sulfonyl]-4-fluoro-1-benzofuran-2-carboxamide], for which the IC50 in test [1] is 0.00419 µM; in test [2] (MVLN, 24 h) it was 7.76e-08 M.

Take `CCOc1cccc(OCC(F)F)c1S(=O)(=O)NC(=O)c1cc2c(F)cc(N3CCC3)cc2o1` [Example 81, 6-(Azetidin-1-yl)-N-[2-(2,2-difluoroethoxy)-6-ethoxybenzene-1-sulfonyl]-4-fluoro-1-benzofuran-2-carboxamide]: the IC50 stood at 0.018 µM in test [1] and 1.57e-07 M in test [2] (MVLN, 24 h).

As to `COc1ccc2cccnc2c1S(=O)(=O)NC(=O)c1cc2c(F)cc(N3CCC3)cc2o1` [Example 8, 6-(Azetidin-1-yl)-4-fluoro-N-(7-methoxyquinoline-8-sulfonyl)-1-benzofuran-2-carboxamide], the IC50 in test [1] came to 0.021 µM; in test [2] (MVLN, 24 h) it was 1.25e-07 M.

`CN(C)c1cccc2c(S(=O)(=O)NC(=O)c3cc4c(F)cc(N5CCC5)cc4o3)cccc12` [Example 66, 6-(Azetidin-1-yl)-N-[5-(dimethylamino)naphthalene-1-sulfonyl]-4-fluoro-1-benzofuran-2-carboxamide]: the IC50 in test [1] is 0.135 µM; in test [2] (MVLN, 24 h), 1e-05 M.

Consider `Cc1ccc2cccnc2c1S(=O)(=O)NC(=O)c1cc2c(F)cc(N3CCC3)cc2o1` [Example 173, 6-(Azetidin-1-yl)-4-fluoro-N-(7-methylquinoline-8-sulfonyl)-1-benzofuran-2-carboxamide], for which the IC50 was determined as 0.0657 µM in test [1] and 1.58e-07 M in test [2] (MVLN, 24 h).

Take `CSc1nc2ccccn2c1S(=O)(=O)NC(=O)c1cc2c(F)cc(N3CCC3)cc2o1` [Example 149, 6-(Azetidin-1-yl)-4-fluoro-N-[2-(methylsulfanyl)imidazo[1,2-a]pyridine-3-sulfonyl]-1-benzofuran-2-carboxamide]: the IC50 is 0.261 µM in test [1] and 3.66e-06 M in test [2] (MVLN, 24 h).

In the case of `O=C(NS(=O)(=O)c1cccc2c1OCCO2)c1cc2c(F)cc(N3CC(F)C3)cc2o1` [Example 109, N-(2,3-dihydro-1,4-benzodioxine-5-sulfonyl)-4-fluoro-6-(3-fluoroazetidin-1-yl)-1-benzofuran-2-carboxamide], the IC50 was found to be 0.172 µM in test [1] and 5.92e-07 M in test [2] (MVLN, 24 h).

Take `O=C(NS(=O)(=O)c1ccccc1C(Cl)Cl)c1cc2c(F)cc(N3CC(F)C3)cc2o1` [Example 114, N-[2-(dichloromethyl)benzene-1-sulfonyl]-4-fluoro-6-(3-fluoroazetidin-1-yl)-1-benzofuran-2-carboxamide]: the IC50 in test [1] is 0.406 µM; in test [2] (MVLN, 24 h) it was over 2e-05 M.

Turning to `CCc1csc(C)c1S(=O)(=O)NC(=O)c1cc2c(F)cc(N3CCC3)cc2o1` [Example 36, 6-(Azetidin-1-yl)-N-(4-ethyl-2-methylthiophene-3-sulfonyl)-4-fluoro-1-benzofuran-2-carboxamide], the IC50 in test [1] stood at 0.367 µM; in test [2] (MVLN, 24 h) it was 6.04e-07 M.

As for `Cc1nn(C(C)C)cc1S(=O)(=O)NC(=O)c1cc2c(F)cc(N3CCC3)cc2o1` [Example 91, 6-(Azetidin-1-yl)-4-fluoro-N-[3-methyl-1-(propan-2-yl)-1H-pyrazole-4-sulfonyl]-1-benzofuran-2-carboxamide], the IC50 in test [1] amounted to 0.379 µM; in test [2] (MVLN, 24 h), 3.08e-07 M.

As for `Cc1noc(-c2ccccc2S(=O)(=O)NC(=O)c2cc3c(F)cc(N4CCC4)cc3o2)n1` [Example 37, 6-(Azetidin-1-yl)-4-fluoro-N-[2-(3-methyl-1,2,4-oxadiazol-5-yl)benzene-1-sulfonyl]-1-benzofuran-2-carboxamide], the IC50 in test [1] was 0.181 µM; in test [2] (MVLN, 24 h), 7.04e-07 M.

Turning to `CC(=O)Nc1ccc(S(=O)(=O)NC(=O)c2cc3c(F)cc(N4CCC4)cc3o2)c2ccccc12` [Example 185, N-(4-Aacetamidonaphthalene-1-sulfonyl)-6-(azetidin-1-yl)-4-fluoro-1-benzofuran-2-carboxamide], the IC50 was 0.195 µM in test [1] and 9.61e-06 M in test [2] (MVLN, 24 h).

Take `Cc1ccc(S(=O)(=O)NC(=O)c2cc3c(F)cc(N4CCC4)cc3o2)c2ccncc12` [Example 191, 6-(Azetidin-1-yl)-4-fluoro-N-(8-methylisoquinoline-5-sulfonyl)-1-benzofuran-2-carboxamide]: the IC50 in test [1] was 0.301 µM; in test [2] (MVLN, 24 h), 4.99e-06 M.

For the molecule `CC(C)Oc1cccc(Br)c1S(=O)(=O)NC(=O)c1cc2c(F)cc(N3CCC3)cc2o1` [Example 39, 6-(Azetidin-1-yl)-N-{2-bromo-6-[(propan-2-yl)oxy]benzene-1-sulfonyl}-4-fluoro-1-benzofuran-2-carboxamide], in test [2] (MVLN, 24 h), the IC50 was 7.88e-07 M.

Regarding `CN(C(=O)Oc1ccccc1S(=O)(=O)NC(=O)c1cc2c(F)cc(N3CCC3)cc2o1)c1ccccc1` [Example 62, 2-{[6-(Azetidin-1-yl)-4-fluoro-1-benzofuran-2-carbonyl]sulfamoyl}phenyl methyl(phenyl)carbamate], in test [2], the IC50 was found to be 6.43e-06 M.

Take `COc1ccc(C2=CCN(C(=O)OC(C)(C)C)CC2)cc1S(=O)(=O)NC(=O)c1cc2c(F)cc(N3CCC3)cc2o1` [Example 197, tert-butyl 4-(3-{[6-(azetidin-1-yl)-4-fluoro-1-benzofuran-2-carbonyl]sulfamoyl}-4-methoxyphenyl)-3,6-dihydropyridine-1(2H)-carboxylate]: the IC50 in test [2] (MVLN, 24 h) was 1.62e-07 M.
